Source: US11312693B2, “Protease inhibitors” (MEDIVIR AB, priority 2008, dated 2022)

Key:
[1] = In vivo mouse PK, oral administration (FIG. 1); set-up: species or system male C57BI mice; details: 60 μmol/kg in 1% Methocel A4C, versus Example 2 of WO2008 007107
From the text: FIG. 1 depicts plasma concentration against time for male C57BI mice orally administered a compound of the invention or a compound of the prior art.
Various embodiments of the invention will now be described by way of illustration only with reference to the following Examples and FIG. 1 which depicts plasma concentration against time for male C57BI mice orally administered a compound of the invention or a compound of the prior art.

[2] = Metabolic stability in whole blood; assay type: in vitro ADME; details: from CLint
Method: Compounds of the invention and the indicated comparative examples were tested for metabolic stability in a cytosol assay in which the compounds were incubated with commercially available human hepatic cytosol fractions and the disappearance of the compound monitored by HPLC or LC/MS. Pooled human liver cytosol fractions are less likely to represent outlier individuals than blood from a single individual and can be stored frozen, unlike whole blood. The cytosol assay thus provides a consistent assay testbed as a guide to the stability of a compound in the in vivo environment, such as when exposed to whole blood.
In short, test compounds (2 μM) are incubated in pooled human liver cytosol (Xenotech LLC Lenexa US, 1 mg/mL protein in 0.1M phosphate buffer, pH 7.4) at 37° centigrade over a one hour period. The incubations are initiated by the addition of 1 mM NADPH co-factor. Timed sub-samples were taken at 0, 20, 40 and 60 minutes and “crash precipitated” by the addition of 3 volumes of ice-cold acetonitrile. The samples were centrifuged at reduced temperature and the supernatants were separated and analyzed by LC-MS-MS.
Alternatively, an analogous stability assay is carried out in human or monkey whole blood and/or commercially available liver microsomes, such as XEN 025.

Row | SMILES | in vivo exposure (whether measured as Cmax or AUC) [1] | estimated / calculated whole blood half life [2]
1 | C#C[C@@H]1CN(C(=O)[C@H](CC(C)C)NC(=O)c2ccc(-c3nc(N4CCN(C)CC4)sc3F)cc2)[C@@H]2C(=O)CO[C@H]12 [Example 2, N-[1-6-(ethynyl-3-oxo-hexahydro-furo[3,2-b]pyrrole-4-carbonyl)-3-methyl-butyl]-4-[5-fluoro-2-(4-methyl-piperazin-1-yl)thiazol-4-yl]-benzamide] | very much greater | –
2 | CC(C)C[C@H](NC(=O)c1ccc(-c2csc(N3CCN(C)CC3)n2)cc1)C(=O)N1C[C@@H](C)[C@H]2OCC(=O)[C@H]21 [comparative example] | – | little over an hour
